Reference: US20020049157A1, “Use of proteasome inhibitors for treating cancer, inflammation, autoimmune disease, graft rejection and septic shock” (priority 1998, published 2002)

Columns and labels:
p21^Cip1 = experiment: Immunoblotting of p21Cip1 level in T cells; assay type: cell-based, human; details: PHA; LAC 10 μM added once at the beginning
Experimental: Tonsillar T cells were stimulated with PHA (2 μg/ml) for 16 h, 40 or 64 h in the absence or presence of LAC (10 μM). For the 16 h and 40 h culture, LAC was added once at 0 h. For the 64 h culture, LAC was added once at 40 h. The cell lysates were resolved in 10% SDS-PAGE, and blotted onto PVDF membranes. The membranes were hybridized with rabbit anti-p27^Kip1 antisera (FIG. 9A) or with anti-p21^Cip1 antisera (FIG. 9B) followed by ^125-protein A. The experiments were performed three times, and similar results were obtained. Representative data is shown.
In addition to the cyclin levels, the CDK activities are also controlled by several low molecular weight inhibitors. We have examined in this study the effect of the proteasome on the CDK inhibitors p27^Kip1 (Hall et al., 1995, supra) and p21^Cip1 (el-Deiry et al., 1993, Cell 75:817). […] This is in agreement with previous reports (Hengst et al., 1996, Science 271:1861; Nourse et al., 1994, Nature 372:570). […] The blockage was less obvious when assayed at 40 h, probably because the gradual loss of LAC activity during the 40 h culture. […]
Immunoblotting was employed to evaluate the levels of Cyclin E, cyclin A, p21^Cip1 and p27^Kip1. […] The cleared lysates were quantitated for protein concentrations. […] The signals on the membrane were detected by [^125I]-protein A followed by autoradiography.

[1] = system: human peripheral blood mononuclear cells; experiment: Aggregate formation of PHA-stimulated PBMC; assay type: cell-based; details: 2 μg/ml PHA plus 10 μM lactacystin; 24 h
Description: Cell-cell interaction is essential in antigen presentation and in T cell's help to T and B cells. The adhesion molecules are necessary to establish the cell-cell interaction. Blocking the adhesion molecules ICAM-1 and LFA-1 is known to inhibit immune responses and to suppress graft rejection. […] Therefore, inhibition of the proteasome activity will be a useful way to control undesirable immune responses during graft rejection, autoimmune diseases, and inflammation.

Cyclin E-associated CDK = experiment: Immunoprecipitation kinase assay, Cyclin E-associated CDK; assay type: cell-based, human; details: PHA-activated T cells; LAC 10 μM added once at 0 h
Experimental: (§1) Tonsillar T cells were activated with PHA (2 μg/ml) for a period as indicated in each graph. LAC (10 μM) was added once at 0 h. The cells were harvested at 16 h, 24 h, or 40 h as indicated. An equal amount of lysate protein ([…]) was precipitated with rabbit anti-CDK4, anti-CDK2 or anti-Cyclin E antisera (2.5 μg Ab/sample). The immune complexes were assayed for their kinase activities using histone H1 as a substrate. (A) CDK4 kinase activity. (B) CDK2 kinase activity. (C) Cyclin E-associated CDK activity. The membrane in (C) was subsequently hybridized with anti-Cyclin E (1 μg/ml) followed by ^125I-protein A for the evaluation of the protein level of Cyclin E.
Since at the late G1 phase Cyclin E is the predominant partner of CDK2 (Sherr, 1993, Cell 73:1059), we next examined the Cyclin E-associated CDK activity.
(§2) Lymphocytes were lysed by a lysis buffer as used in the immunoblotting (Chen et al., 1996, supra), and cleared lysates were quantitated for their protein content. For immunoprecipitation, 50 μl of rabbit antisera against CDK2, CDK4 or Cyclin E were added to the lysates equivalent to 20 or 40 μg protein depending on the experiment. […] The proteins were then transferred to PVDF membranes and the signals were detected by autoradiography.

CDK4 = experiment: Immunoprecipitation kinase assay, CDK4; assay type: cell-based, human; details: PHA-activated T cells; LAC 10 μM added once at 0 h; examined at 16 h and 40 h
Experimental: as §1
This was in agreement with the critical role of CDK4 in the early […].
as §2, with “experiment. After 2 h incubation at 4° C., the immune complexes were recovered by protein A-conjugated Sepharose (Pharmacia Biotech, Montreal, Quebec, Canada).” for “experiment.”

20S proteasome = 20S proteasome (Rattus norvegicus, UniProt P28075); experiment: 20S proteasome chymotrypsin-like activity, positive control for LAC; assay type: biochemical
Experimental: Human PBMC were cultured in the absence or presence of 2 μg/ml PHA or 10 nM RAPA for 16 h-70 h as indicated. The cells were then harvested, and the chymotrypsin-like activity of whole cells lysates was assayed in the absence or presence of 20 μM proteasome inhibitor LAC. The data are presented as arbitrary units of fluorescence intensity per 20 μg lysate protein. The experiments were repeated three times and a representative one is shown. Samples are in duplicate and the mean±SD is shown. (A) Total chymotrypsin-like activity in the lysate of PBMC. (B) Lactacystin-inhibitable chymotrypsin-like activity in the lysate of 70 h PBMC. […] LAC was always added to the lysates during the proteinase assay 15 min before the addition of the substrate. The solid bars represent the activity in the presence of LAC. The net proteasome activities are calculated as the total activity minus the remaining activity after the LAC addition.
PBMC were cultured with or without PHA (2 μg/ml) and RAPA (10 nM). After 16 h-70 h, the cells were harvested and sonicated in 300 μl PBS on ice for 40 sec. Twenty micrograms of protein per sample from the cleared lysates were supplemented to 100 μl with 0.1 M Tris buffer (pH 8.2). […] The samples were then diluted to 2 ml with 0.1 M Tris pH8.2, and measured for their fluorescent intensity by a PTI fluorometer (Photo Technology International, South Brunswick, N.J.). […]

For CC(=O)N[C@@H](CSC(=O)[C@]1([C@@H](O)C(C)C)NC(=O)[C@H](C)[C@@H]1O)C(=O)O [LAC, lactacystin], the “upregulation of p21Cip1 in the G1 phase” value (p21^Cip1) was “strongly suppressed the upregulation”, the aggregate formation [1] was “effectively block the aggregate formation” and the “Cyclin E-associated kinase activity” value (Cyclin E-associated CDK) was “almost completely inhibited”. The CDK4 kinase activity (CDK4) was “did not affect the CDK4 activity”, the inhibition at 10 µM (20S proteasome; LAC at 10 μM) was 90% and the “inhibitory effect on the 20S proteasome activity” value (20S proteasome; LAC increased to 20 μM) was “did not further increase the inhibitory effect”.
